Reference: patent publication US9149546B2, “Compound having affinity for amyloid” (NIHON MEDI-PHYSICS CO., LTD., priority 2011, dated 2015)

Tests used:
[1] = test system: site of amyloid deposition in brain slice of AD patients; assay: Confirmation of compound avidity for brain slice of AD patients by autoradiography; type: binding, human; conditions: 5 μm brain slice of AD patients, 10 kBq/mL, 30 minutes, room temperature; amyloid deposition confirmed by immunostaining
Protocol: The following experiment was carried out in order to examine whether amyloid in brain of AD patients can be imaged by the compound of the present invention. • (1) A 5 μm-thick brain slice of AD patients was prepared from a brain tissue of AD patients available from Analytical Biological Services Inc. (United States). • (2) The brain slice was immersed in PBS for 15 minutes, 5 minutes and 5 minutes each. […] Then, it was immersed in a 1% BSA-containing PBS solution, a PBS solution and a PBS solution each for 5 minutes to wash the brain slice. The washed brain slice was sufficiently dried, and then exposed to an imaging plate for 16 hours, and then autoradiogram image analysis was carried out by use of a Bio-imaging Analyzer (type: BAS-2500; manufactured by FUJIFILM Corporation) (FIG. 3, FIG. 4, FIG. 5). • (3) Immunostaining at a site of amyloid deposition with an anti-amyloid antibody was carried out using adjacent slices. Anti-Human Amyloidβ (N) (82E1) Mouse IgG MoAb (Immuno-Biological Laboratories Co., Ltd.) was used as the anti-amyloid antibody, and Anti-Mouse IgG (H+L) Goat IgG Fab′-HRP (Immuno-Biological Laboratories Co., Ltd.) was used as a secondary antibody. […] Results

[2] = Measurement of transferability into brain and clearance; type: in vivo, male Wistar rats; conditions: rats, intravenous injection; for Radioactive accumulation per unit weight, After 2 min. / Radioactive accumulation per unit weight, After 5 min. / Radioactive accumulation per unit weight, After 15 min. / Radioactive accumulation per unit weight, After 30 min. / Radioactive accumulation per unit weight, After 60 min.: brain; for Radioactive accumulation per unit weight, After 2 min.: 2 min after injection; for Radioactive accumulation per unit weight, After 5 min.: 5 min after injection; for Radioactive accumulation per unit weight, After 15 min.: 15 min after injection; for Radioactive accumulation per unit weight, After 30 min.: 30 min after injection; for Radioactive accumulation per unit weight, After 60 min.: 60 min after injection; for transferability to brain and clearance from brain (in words): 2 to 60 min
Protocol: The sample solution was injected under non-anesthesia into the tail vein of male Wistar rats (8-week old) (dosage: 0.2 mL, dosed radioactivity: 7.4 MBq equivalent). The rats were sacrificed by decapitating under non-anesthesia to sample bloods and brains 2, 5, 15, 30 and 60 minutes after the injection. Brains were subjected to measurement of mass of brains and further subjected to measurement of radioactivity (hereinafter referred to as A in this Example) with a single channel analyzer (detector type SP-20 manufactured by OHYO KOKEN KOGYO Co., Ltd.). Further, the radioactivity level of the rest of the whole body including blood was measured in the same manner as above (hereinafter referred to as B in this Example). Using these measurement results, the amount of radioactive accumulation per unit weight of brain (% ID/g) at the respective time points were calculated in accordance with the following formula (2).
Separately, a solution of [^123I]-IMPY dissolved in a physiological saline solution containing 50 mmol/L of L-cysteine hydrochloride (radioactive concentration: 37 MBq/mL) was prepared. The same procedure as above was carried out to calculate the amount of radioactive accumulation per unit weight of brain (% ID/g) at the respective time points.
Meanwhile, in this Example, three animals were used for the experiment at the respective time points.

[3] = Measurement of partition coefficient based on the octanol extraction method; type: physicochemical; conditions: water saturated 1-octanol / 1-octanol saturated water, 20 to 25±2° C.
Protocol: Water saturated 1-octanol and 1-octanol saturated water were added to the equilibrated vessel each in an amount of 200 μL, 400 μL or 800 μL. The equilibrated vessel was subjected to stirring, and then was shaken for 5 minutes (20 to 25±2° C., 20 rpm). […] Using the obtained count, log Poctanol was calculated in accordance with the following equation (1).

[4] = biological target: amyloid aggregates in the brain of AD patients (Homo sapiens, UniProt P05067); assay: Binding assay using brain gray matter homogenate of AD patients (Kd, Bmax); conditions: mixed solution of Compound 1 and Compound 3, 0.2 to 25 nmol/L; brain gray matter homogenate (frontal lobe) of AD patients; 22° C., 3 hours
Protocol: Calculation of Dissociation Constant (Hereinafter, Referred to as Kd) and Maximum Binding Amount (Hereinafter, Referred to as Bmax) Resulting from Binding Assay Using Brain Tissue of Patients of Alzheimer's Disease (Hereinafter, Referred to as AD)
The assay was conducted using a brain gray matter homogenate of AD patients, which was prepared from a brain tissue (Frontal lobe) of AD patients commercially available from Analytical Biological Services Inc. (United States).
A mixed solution of Compound 1 (about 35 kBq/100 μL) and Compound 3 (62.5 nmol/L) was diluted with a 0.1% bovin serum albumin (hereinafter referred to as BSA)-containing 5 mmol/L phosphate buffer saline solution, and prepared to have a concentration of 0.2 nmol/L to 25 nmol/L in the reaction solution. To each well of a 96-well microplate, 100 μL of a 0.1% BSA-containing 5 mmol/L phosphate buffer saline solution and 100 μL of the prepared mixed solution of Compound 1 and Compound 3 were added. […] The filter after filtration was washed with a 0.1% BSA-containing 5 mmol/L phosphate buffer saline solution (200 μL×3 times), and then radioactivity remaining in the filter was measured with an Autowell Gamma system (type: ARC-7001, manufactured by Aloka). […] The resulting count was analyzed with GraphPad Prism Ver. 5 (manufactured by GraphPad Software, Inc.), and binding parameter (Kd, Bmax) was calculated.

Sequence of amyloid aggregates in the brain of AD patients (P05067 672-713): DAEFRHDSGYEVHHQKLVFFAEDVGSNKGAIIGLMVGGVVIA

Compound	binding to the site of amyloid deposition on autoradiogram [1]	Radioactive accumulation per unit weight, After 2 min. [2]	Radioactive accumulation per unit weight, After 5 min. [2]	Radioactive accumulation per unit weight, After 15 min. [2]	Radioactive accumulation per unit weight, After 30 min. [2]	Radioactive accumulation per unit weight, After 60 min. [2]	transferability to brain and clearance from brain (in words) [2]	logP at 5 min ([3]; 1-octanol/water, read-out: logPoctanol value)	logPoctanol value [3]	Bmax [4]
[^123I]-6-iodo-2-[4-(1H-pyrrole-1-yl)phenyl]imidazo[1,2-a]pyridine [Compound 2]	confirmed	1.201 % ID/g	1.065 % ID/g	0.745 % ID/g	0.349 % ID/g	0.113 % ID/g	excellent transferability to brain and rapid clearance from brain	–	–	–
[123I]c1ccc2nc(-c3ccc(-n4ccnn4)cc3)cn2c1 [Compound 1, [^123I]-6-iodo-2-[4-(1H-1,2,3,-triazole-1-yl)phenyl]imidazo[1,2-a]pyridine]	confirmed	1.085 % ID/g	0.701 % ID/g	0.260 % ID/g	0.100 % ID/g	0.034 % ID/g	excellent transferability to brain and rapid clearance from brain	1.98	1.98	2242 fmol/mg protein
CN(C)c1ccc(-c2cn3cc(I)ccc3n2)cc1 [[^123I]-IMPY, 6-iodo-2-[4′-(N,N-dimethylamino)phenyl]imidazo[1,2-a]pyridine, reference compound]	confirmed	1.644 % ID/g	1.192 % ID/g	0.554 % ID/g	0.225 % ID/g	0.085 % ID/g	–	–	–	–
